{
  "source": "patent US20230201487A1",
  "about": "“NEBULIZER DEVICE OPTIMIZATION FOR IMPROVED AEROSOL PARAMETERS AND USES THEREOF” (Avalyn Pharma Inc., priority 2020, published 2023)",
  "assay_type_in_all_cases": "physicochemical",
  "key": {"[1]": {"test": "Respirable aerosol droplet output rate by laser diffraction and gravimetric total output rate, simulated breathing, eFlow nebulizer", "conditions": "for Output rate Benefit, Combined Effect (Vented + XL): vented XL vs. non-vented L", "description": "As an initial analysis, emitted aerosol saline and pirfenidone aqueous solution formulation droplet size as a function of time was measured using a Helos, Sympatec laser under partially simulated breathing conditions (adult breathing pattern, 500 mL tidal volume, 15 breaths/min with a 1:1 inhalation: exhalation ratio) using a Compas 2 breath simulator. Briefly, twelve investigational PART eFlow® nebulizers (with 6 L and 6 XL aerosol mixing chambers) with a single set of 6 (six) aerosol head class 35 (6 total heads; Table 1) were used in both L (about 49 cc volume aerosol mixing chamber) and XL (about 98 cc volume aerosol mixing chamber) configurations and tested in triplicate with the 8 mL of pirfenidone aqueous solution medicine cup reservoir under atmospheric conditions (vented) and permitting generation of negative pressure (non-vented). The following exemplary replicates were performed: A. Head 1/L/vented, B. Head 1/L/non-vented, C. Head 1/XL/vented, D. Head 1/XL/non-vented, and repeated in the following order: A, B, C, D, A, B, C, D, A, B, C, D. Results are shown in Table 2.\nIn this analysis, respirable aerosol droplet output rate of saline and pirfenidone formulation was determined by multiplying the respirable fraction (RF; percent emitted aerosol droplets with a diameter less than 5 microns at 20 second increments) by total output rate (TOR; calculated by dividing the total nebulizer weight loss by nebulization duration). Saline was made as 150 mM sodium chloride in water, while the pirfenidone formulation was 12.5 mg/mL pirfenidone in 5 mM citrate buffer, pH 6.0, 150 mM sodium chloride and 0.75 mM sodium saccharin in water. Duration to nebulize 8 mL saline was 8.6 min, 12.6 min, 8.5 min and 12.0 min for vented “L”, non-vented “L”, vented “XL” and non-vented “XL”, respectively. Duration to nebulize 8 mL AP01 was 8.4 min, 12.3 min, 8.3 min and 12.4 min for vented “L”, non-vented “L”, vented “XL” and non-vented “XL”, respectively."}, "[2]": {"test": "Respirable delivered dose during breath simulation, inspiratory filters, HPLC", "set-up": "Slope of respirable delivered dose: unit not given here", "conditions": "for Total respirable delivered pirfenidone dose over 8 minutes: 8 mL of 12.5 mg/mL", "description": "For a more clinically relevant comparison, in a second analysis, of aerosol delivery parameters for pirfenidone in solution, the respirable delivered dose (RDD; amount of deposited pirfenidone from aerosol droplets less than 5 microns in diameter) was measured during breath simulation (adult breathing pattern, 500 mL tidal volume, 15 breaths/min with a 1:1 inhalation: exhalation ratio) using a Compas 2 breath simulator was used as follows. Briefly, twelve investigational eFlow® (with 6 L and 6 XL aerosol mixing chambers) with a single set of 6 (six) aerosol head class 35 (6 total heads; Table 1) were used in both (about 49 cc volume) and XL (about 98 cc volume) aerosol mixing chamber configurations and tested in duplicate with the 8 mL medicine cup reservoir under atmospheric conditions (vented) and permitting generation of negative pressure (non-vented) during nebulization. An 8 mL dose (aqueous pirfenidone solution at concentration of 12.5 mg/ml) was loaded into the medicine cup reservoir and nebulization initiated. After 2, 4, 6 and 8 min of nebulization, inspiratory filters were collected and extracted for pirfenidone quantitation using HPLC analysis. A final filter was used after 8 min to collect remaining dose. The following exemplary replicates were performed: A. Head 1/L/vented, B. Head 1/L/non-vented, C. Head 1/XL/vented, D. Head 1/XL/non-vented, and repeated in the following order: A, B, C, D, A, B, C, D. Results are shown in Table 4."}, "[3]": {"test": "Aerosol head/assembled device correlation study (TOR, VMD, GSD, nebulization time), 53 aerosol heads", "conditions": "Vented, XL Device", "description": "To establish an aerosol generator (head) specification meeting the desired delivery of 8 mL aqueous pirfenidone solution in the assembled nebulizer device 1 not exceeding 16 minute delivery time (or an 0.5 mL/min output rate), a correlation study between the head-only performance with 0.9% NaCl (saline) and the assembled nebulizer device 1 (vented, XL configuration) performance with aqueous pirfenidone was conducted. Using heads only, the aerosol characteristics total output rate (TOR), volumetric median diameter (VMD) and geometric standard deviation (GSD) were performed under constant negative pressure (−250 mbar; relative to atmospheric pressure) and under ambient, atmospheric pressure conditions (0 mbar; relative to atmospheric pressure).\nThese heads were either tested alone using a special apparatus (saline −250 mbar or 0 mbar) or in assembled devices (saline and aqueous pirfenidone; 8 mL vented medicine cup reservoir 3 and XL aerosol mixing chamber 8 configuration)."}},
  "note": "Marks after values point to notes of the source that are not given here.",
  "data": [
    {"compound": "Cc1ccc(=O)n(-c2ccccc2)c1", "note": "[pirfenidone, 5-methyl-1-phenyl-2-(1H)-pyridone]", "values": [
      {"measurement": "Benefit of aerosol mixing chamber volume on respirable aerosol droplet output rate", "setting": "[1]; all device configurations regardless of medicine cup pressure", "result": "−2 to −5.5", "unit": "%"},
      {"measurement": "Output rate Benefit, Maintaining Atmospheric Pressure (Vented)", "setting": "[1]; vented L vs. non-vented L, 0-2 min", "result": "about +19.4%"},
      {"measurement": "Output rate Benefit, Maintaining Atmospheric Pressure (Vented)", "setting": "[1]; vented L vs. non-vented L, 6-8 min", "result": "about +17.5%"},
      {"measurement": "Output rate Benefit, Combined Effect (Vented + XL)", "setting": "[1]; 0-2 min", "result": "about +17%"},
      {"measurement": "Output rate Benefit, Combined Effect (Vented + XL)", "setting": "[1]; 6-8 min", "result": "~+12.6%"},
      {"measurement": "Output rate Benefit, Maintaining Atmospheric Pressure (Vented)", "setting": "[1]; vented XL vs. non-vented XL, 0-2 min", "result": "about +23.8%"},
      {"measurement": "Output rate Benefit, Maintaining Atmospheric Pressure (Vented)", "setting": "[1]; vented XL vs. non-vented XL, 6-8 min", "result": "about +17%"},
      {"measurement": "Theoretical total delivery rate", "setting": "[2]; assuming a fifty percent respirable delivered dose, 12.5 mg/mL", "result": 6.25, "unit": "mg per minute"},
      {"measurement": "Slope of respirable delivered dose", "setting": "[2]; non-vented (NV), L aerosol mixing chamber", "result": "−0.16"},
      {"measurement": "Respirable Delivered Dose", "setting": "[2]; non-vented (NV), L aerosol mixing chamber, 0-2 min", "result": 5.75, "unit": "mg/time increment"},
      {"measurement": "Respirable Delivered Dose", "setting": "[2]; non-vented (NV), L aerosol mixing chamber, 2-4 min", "result": 5.71, "unit": "mg/time increment"},
      {"measurement": "Respirable Delivered Dose", "setting": "[2]; non-vented (NV), L aerosol mixing chamber, 4-6 min", "result": 5.49, "unit": "mg/time increment"},
      {"measurement": "Respirable Delivered Dose", "setting": "[2]; non-vented (NV), L aerosol mixing chamber, 6-8 min", "result": 5.27, "unit": "mg/time increment"},
      {"measurement": "Slope of respirable delivered dose", "setting": "[2]; non-vented (NV), XL aerosol mixing chamber", "result": "−0.20"},
      {"measurement": "Respirable Delivered Dose", "setting": "[2]; non-vented (NV), XL aerosol mixing chamber, 0-2 min", "result": 6.50, "unit": "mg/time increment"},
      {"measurement": "Respirable Delivered Dose", "setting": "[2]; non-vented (NV), XL aerosol mixing chamber, 2-4 min", "result": 6.44, "unit": "mg/time increment"},
      {"measurement": "Respirable Delivered Dose", "setting": "[2]; non-vented (NV), XL aerosol mixing chamber, 4-6 min", "result": 6.37, "unit": "mg/time increment"},
      {"measurement": "Respirable Delivered Dose", "setting": "[2]; non-vented (NV), XL aerosol mixing chamber, 6-8 min", "result": 5.87, "unit": "mg/time increment"},
      {"measurement": "RDD Benefit, Increased Aerosol mixing chamber (XL)", "setting": "[2]; non-vented L vs. non-vented XL, 0-2 min", "result": "13.15^g %"},
      {"measurement": "RDD Benefit, Increased Aerosol mixing chamber (XL)", "setting": "[2]; non-vented L vs. non-vented XL, 6-8 min", "result": "11.28^g %"},
      {"measurement": "Respirable delivered dose per minute", "setting": "[2]; non-vented L, 12.5 mg/mL", "result": 2.78, "unit": "mg/min"},
      {"measurement": "Total respirable delivered pirfenidone dose over 8 minutes", "setting": "[2]; non-vented L", "result": 22.22, "unit": "mg"},
      {"measurement": "Slope of respirable delivered dose", "setting": "[2]; vented (V), L aerosol mixing chamber", "result": 0.12},
      {"measurement": "Respirable Delivered Dose", "setting": "[2]; vented (V), L aerosol mixing chamber, 0-2 min, 8 mL of 12.5 mg/ml", "result": 5.97, "unit": "mg/time increment"},
      {"measurement": "Respirable Delivered Dose", "setting": "[2]; vented (V), L aerosol mixing chamber, 2-4 min", "result": 6.16, "unit": "mg/time increment"},
      {"measurement": "Respirable Delivered Dose", "setting": "[2]; vented (V), L aerosol mixing chamber, 4-6 min", "result": 6.33, "unit": "mg/time increment"},
      {"measurement": "Respirable Delivered Dose", "setting": "[2]; vented (V), L aerosol mixing chamber, 6-8 min", "result": 6.32, "unit": "mg/time increment"},
      {"measurement": "Slope of respirable delivered dose", "setting": "[2]; vented (V), XL aerosol mixing chamber", "result": 0.13},
      {"measurement": "Respirable Delivered Dose", "setting": "[2]; vented (V), XL aerosol mixing chamber, 0-2 min", "result": 6.65, "unit": "mg/time increment"},
      {"measurement": "Respirable Delivered Dose", "setting": "[2]; vented (V), XL aerosol mixing chamber, 2-4 min", "result": 7.07, "unit": "mg/time increment"},
      {"measurement": "Respirable Delivered Dose", "setting": "[2]; vented (V), XL aerosol mixing chamber, 4-6 min", "result": 7.01, "unit": "mg/time increment"},
      {"measurement": "Respirable Delivered Dose", "setting": "[2]; vented (V), XL aerosol mixing chamber, 6-8 min", "result": 7.11, "unit": "mg/time increment"},
      {"measurement": "RDD Benefit, Increased Aerosol mixing chamber (XL)", "setting": "[2]; vented L vs. vented XL, 0-2 min", "result": "11.35^e %"},
      {"measurement": "RDD Benefit, Increased Aerosol mixing chamber (XL)", "setting": "[2]; vented L vs. vented XL, 6-8 min", "result": "12.49^e %"},
      {"measurement": "Respirable delivered dose per minute", "setting": "[2]; vented XL, 12.5 mg/mL", "result": 3.48, "unit": "mg/min"},
      {"measurement": "Total respirable delivered pirfenidone dose over 8 minutes", "setting": "[2]; vented XL", "result": 27.84, "unit": "mg"},
      {"measurement": "Total Output Rate (TOR), Average", "setting": "[3]", "result": 0.782, "unit": "g/min"},
      {"measurement": "Total Output Rate (TOR), Max", "setting": "[3]", "result": 1.049, "unit": "g/min"},
      {"measurement": "Total Output Rate (TOR), Min", "setting": "[3]", "result": 0.382, "unit": "g/min"}
    ]}
  ]
}
